Structures can show the parent of a compound that is named as a salt.
tested on: TRIM31 mRNA; test: TRIM31 mRNA expression by RT-qPCR in PA/OA-induced L02 cells; assay type: cell-based, human; conditions: 100 μmol/L compound; PA/OA-induced L02 cells; RT-qPCR
Protocol: Palmitic acid/oleic acid (PA/OA) was used to induce the decrease of TRIM31 mRNA expression in human hepatocyte L02 cells. The cells were divided into control group and drug group. The drug group was treated with a concentration of 100 μmol/L compound, and the expression level of TRIM31 mRNA was detected by RT-qPCR. The expression level of TRIM31 mRNA in the drug group divided by that in the control group (Qdrug/Qctrl) was used to evaluate the ability of the compounds to promote TRIM31 expression. […]

Compound	Qdrug/Qctrl (TRIM31 mRNA expression level, drug group divided by control group) [fold]
Oc1cc(O)c2c(c1)O[C@H](c1cc(O)c(O)c(O)c1)[C@H](O)C2 [(−)-epigallocatechin]	2.71
Oc1ccc([C@H]2Oc3cc(O)cc(O)c3C[C@@H]2O)cc1 [Afzelechin]	3.12
CC1(C)[C@@H](O[C@H]2O[C@H](C(=O)O)[C@@H](O)[C@H](O)[C@H]2O[C@@H]2O[C@H](C(=O)O)[C@@H](O)[C@H](O)[C@H]2O)CC[C@]2(C)[C@H]3C(=O)C=C4[C@@H]5C[C@@](C)(C(=O)O)CC[C@]5(C)CC[C@@]4(C)[C@]3(C)CC[C@@H]12 [Glycyrrhizinic acid]	1.86
COc1cc2c(cc1O)CC[n+]1cc3c(OC)c(OC)ccc3cc1-2 [Jateorhizine]	1.72
O=C1C[C@@H](c2ccc(O)cc2)Oc2cc(O)ccc21 [Liquiritigenin]	2.79
CC(C)=CCc1c(-c2ccc(O)cc2O)oc2c(CC=C(C)C)c(O)cc(O)c2c1=O [Mulberrin]	3.74

same assay, conditions: Homo sapiens, L02, read-out: Qdrug/Qctrl (TRIM31 mRNA expression level, drug group divided by control group)

Compound	fold induction at 100 µM
O=c1cc(-c2ccc(O)cc2)oc2cc(O)cc(O)c12 [Apigenin]	3.21
O=c1cc(-c2ccccc2)oc2cc(O)c(O)c(O)c12 [Baicalein]	3.53
COc1ccc2cc3[n+](cc2c1OC)CCc1cc2c(cc1-3)OCO2 [Berberine, reference compound]	1.32
COC(=O)c1cc(OC)c2c(c1-c1c(C(=O)OC)cc(OC)c3c1OCO3)OCO2 [Bifendate, reference compound]	1.76
CN1Cc2c(ccc3c2OCO3)[C@@H]2[C@H]1c1cc3c(cc1C[C@@H]2O)OCO3 [Chelidonine]	1.53
O=C(/C=C/c1ccc(O)c(O)c1)O[C@@H]1C[C@](O)(C(=O)O)C[C@@H](O)[C@H]1O [Chlorogenic acid]	2.42
O=c1cc(-c2ccccc2)oc2cc(O)cc(O)c12 [Chrysin]	2.89
COc1cc2c(c(OC)c1OC)-c1ccc(OC)c(=O)cc1[C@@H](NC(C)=O)CC2 [Colchicine, reference compound]	1.32
COc1cc(/C=C/C(=O)CC(=O)/C=C/c2ccc(O)c(OC)c2)ccc1O [Curcumin]	2.83
Oc1cc(O)c2cc(O)c(-c3ccc(O)c(O)c3)[o+]c2c1 [Cyanidin]	2.97
C=C(CO)C(=O)O[C@H]1CC(=C)[C@@H]2C[C@H](O)C(=C)[C@@H]2[C@H]2OC(=O)C(=C)[C@@H]21 [Cynaropicrin]	3.35
O=c1c(-c2ccc(O)cc2)coc2cc(O)ccc12 [Daidzein]	2.66
O=C1c2c(O)cc(O)cc2O[C@H](c2ccc(O)c(O)c2)[C@H]1O [Dihydroquercetin]	3.32
Oc1cc(O)c2c(c1)O[C@H](c1ccc(O)c(O)c1)[C@H](O)C2 [Epicatechin]	2.92
COc1cc(/C=C/C(=O)O)ccc1O [Ferulic acid]	2.51
COc1ccc([C@@H]2CC(=O)c3c(O)cc(O)cc3O2)cc1O [Hesperetin]	3.06
COc1cc(-c2oc3cc(O)cc(O)c3c(=O)c2O)ccc1O [Isorhamnetin]	2.77
O=c1c(O)c(-c2ccc(O)cc2)oc2cc(O)cc(O)c12 [Kaempferol]	3.26
COc1cc2nccc(Oc3ccc(NC(=O)NC4CC4)c(Cl)c3)c2cc1C(N)=O [Lenvatinib, reference compound]	2.75
COc1cc(C(=O)OCCCCNC(=N)N)cc(OC)c1O [Leonurine]	1.51
CN(C)C(=N)N=C(N)N [Metformin, reference compound]	2.45
O=c1c(O)c(-c2cc(O)c(O)c(O)c2)oc2cc(O)cc(O)c12 [Myricetin]	3.25
O=C1C[C@@H](c2ccc(O)cc2)Oc2cc(O)cc(O)c21 [Naringenin]	3.02

same assay, conditions: Homo sapiens; 100 μmol/L compound; PA/OA-induced L02 cells; RT-qPCR; read-out: Qdrug/Qctrl (TRIM31 mRNA expression level, drug group divided by control group)

Compound	fold induction at 100 µM
COc1cc2c(c3c1c(=O)c1ccccc1n3C)C=CC(C)(C)O2 [Acronycine]	1.43
C[S+](CC[C@H](N)C(=O)[O-])C[C@H]1O[C@@H](n2cnc3c(N)ncnc32)[C@H](O)[C@@H]1O (some centres unmarked) [Ademetionine, reference compound]	2.55
O=c1cc(-c2ccc(O)cc2)oc2cc(O[C@@H]3O[C@H](CO)[C@@H](O)[C@H](O)[C@H]3O[C@@H]3OC[C@](O)(CO)[C@H]3O)cc(O)c12 [Apiin]	3.22
O=C(O)[C@H]1O[C@@H](Oc2cc3oc(-c4ccccc4)cc(=O)c3c(O)c2O)[C@H](O)[C@@H](O)[C@@H]1O [Baicalin]	2.98
COC(=O)c1cc(OC)c2c(c1-c1c(CO)cc(OC)c3c1OCO3)OCO2 [Bicyclol, reference compound]	2.45
CC[C@@]1(O)C(=O)OCc2c1cc1n(c2=O)Cc2cc3ccccc3nc2-1 [Camptothecin]	2.13
C[C@H](CCC(=O)O)[C@H]1CC[C@H]2[C@@H]3[C@H](O)C[C@@H]4C[C@H](O)CC[C@]4(C)[C@H]3CC[C@]12C [Chenodeoxycholic acid, reference compound]	2.54
O=C(/C=C/c1ccc(O)c(O)c1)O[C@@H]1C[C@@](OC(=O)/C=C/c2ccc(O)c(O)c2)(C(=O)O)C[C@@H](O)[C@@H]1O [Cynarin]	2.56
Oc1cc(O)c2cc(O)c(-c3cc(O)c(O)c(O)c3)[o+]c2c1 [Delphinidin]	2.49
COc1ccc(-c2cc(=O)c3c(O)cc(O)cc3o2)cc1O [Diosmetin]	3.41
O=c1c(O)c(-c2ccccc2)oc2cc(O)cc(O)c12 [Galangin]	2.81
O=c1c(-c2ccc(O)cc2)coc2cc(O)cc(O)c12 [Genistein]	2.73
CC1(C)[C@@H](O[C@H]2O[C@H](C(=O)O)[C@@H](O)[C@H](O)[C@H]2O[C@@H]2O[C@H](C(=O)O)[C@@H](O)[C@H](O)[C@H]2O)CC[C@]2(C)[C@H]3C(=O)C=C4[C@@H]5C[C@@](C)(C(=O)O)CC[C@]5(C)CC[C@@]4(C)[C@]3(C)CC[C@@H]12 [Glycyrrhizic Acid Monoammonium Salt]	1.72
COc1ccc(-c2oc3c(CC=C(C)C)c(O[C@@H]4O[C@H](CO)[C@@H](O)[C@H](O)[C@H]4O)cc(O)c3c(=O)c2O[C@@H]2O[C@@H](C)[C@H](O)[C@@H](O)[C@H]2O)cc1 [Icariin]	3.33
O=c1c(O[C@@H]2O[C@@H](CO)[C@H](O)[C@H]2O)c(-c2ccc(O)cc2)oc2cc(O)cc(O)c12 [Juglanin]	2.95
Nc1cccc2c1CN(C1CCC(=O)NC1=O)C2=O (centres unmarked) [Lenalidomide, reference compound]	1.43
O=c1cc(-c2ccc(O)c(O)c2)oc2cc(O)cc(O)c12 [Luteolin]	3.09
O[C@H]1[C@H]2c3cc4c(cc3CN3CCC(=C[C@@H]1O)[C@H]23)OCO4 [Lycorine]	2.26
COc1ccc2c(c1O)-c1c(O)c(OC)cc3c1[C@H](C2)[N+](C)(C)CC3 [Magnoflorine]	1.38
O=c1c(O)c(-c2ccc(O)cc2O)oc2cc(O)cc(O)c12 [Morin]	2.86
O=C1CCC[C@@H]2[C@H]3CCC[N+]4([O-])CCC[C@@H](CN12)[C@@H]34 (some centres unmarked) [Oxymatrine]	1.15

From US20240293579A1, “Composition Comprising Trim31 and Rhbdf2 for Treatment of NAFLD/NASH” (CHONGQING MEIPULAN TECHNOLOGY CO., LTD, priority 2021, published 2024)
